From the NIST ThermoML archive (doi:10.1021/je050519g)

Key:
[1] = 293.15 K; for surface tension liquid-gas: Pendant drop shape; for mass density: 101.33 kPa, Liquid
[2] = xn = mol fraction of the nth substance listed; conditions: 293.15 K; for surface tension liquid-gas: Pendant drop shape; for mass density: 101 kPa, Liquid

CCCCCO [pentan-1-ol]
[1]
Conditions	mass density [kg/m3]	surface tension liquid-gas [mN/m]
–	815.11	25.46

CCO [ethanol]
[1]
Conditions	mass density [kg/m3]	surface tension liquid-gas [mN/m]
–	786.44	22.31

CC#N [acetonitrile]
[1]
Conditions	mass density [kg/m3]	surface tension liquid-gas [mN/m]
–	778.3	29.25

CC#N [acetonitrile] + CCCCO
[2]
Conditions	mass density [kg/m3]	surface tension liquid-gas [mN/m]
x1 = 0.1026	805.36	24.65
x1 = 0.2021	803.18	24.78
x1 = 0.302	800.8	24.94
x1 = 0.5024	795.42	25.52
x1 = 0.7014	789.23	26.53
x1 = 0.8007	785.7	27.25
x1 = 0.8995	782.01	28.14

CC#N [acetonitrile] + CCO
[2]
Conditions	mass density [kg/m3]	surface tension liquid-gas [mN/m]
x1 = 0.0999	786.57	22.81
x1 = 0.2007	785.99	23.3
x1 = 0.3039	785.05	23.85
x1 = 0.5001	783.08	25.06
x1 = 0.6994	780.89	26.51
x1 = 0.8013	779.8	27.36
x1 = 0.8996	778.91	28.26

CC#N [acetonitrile] + CO
[2]
Conditions	mass density [kg/m3]	surface tension liquid-gas [mN/m]
x1 = 0.1001	788.46	23.8
x1 = 0.2011	788.04	24.73
x1 = 0.2996	787.13	25.53
x1 = 0.4997	784.82	26.85
x1 = 0.7012	782.13	27.94
x1 = 0.8009	780.75	28.42
x1 = 0.8956	779.47	28.85

CC#N [acetonitrile] + CCCO
[2]
Conditions	mass density [kg/m3]	surface tension liquid-gas [mN/m]
x1 = 0.1004	799.54	24.02
x1 = 0.2018	797.63	24.23
x1 = 0.3013	795.62	24.52
x1 = 0.5004	791.05	25.32
x1 = 0.7003	785.97	26.5
x1 = 0.8002	783.29	27.27
x1 = 0.8997	780.68	28.19

CCCCCO [pentan-1-ol] + CC#N
[2]
Conditions	mass density [kg/m3]	surface tension liquid-gas [mN/m]
x2 = 0.1003	812.2	25.49
x2 = 0.2031	809.06	25.54
x2 = 0.3014	806.03	25.57
x2 = 0.5003	799.64	25.82
x2 = 0.7	792.42	26.64
x2 = 0.8001	788.11	27.29
x2 = 0.8993	783.38	28.11

CCCCO [butan-1-ol]
[1]
Conditions	mass density [kg/m3]	surface tension liquid-gas [mN/m]
–	807.33	24.5

CCCO [propan-1-ol]
[1]
Conditions	mass density [kg/m3]	surface tension liquid-gas [mN/m]
–	801.3	23.78

CO [methanol]
[1]
Conditions	mass density [kg/m3]	surface tension liquid-gas [mN/m]
–	787.83	22.78
